PMC10699586 (Journal of molecular biology, 2023)
pKd: −log10 of the molar value. Counter-ions that a name gives are not always drawn.

Target: T1, dysferlin C2A domain (dysf C2A) (Homo sapiens, UniProt O75923)
T1 sequence (O75923 1-129): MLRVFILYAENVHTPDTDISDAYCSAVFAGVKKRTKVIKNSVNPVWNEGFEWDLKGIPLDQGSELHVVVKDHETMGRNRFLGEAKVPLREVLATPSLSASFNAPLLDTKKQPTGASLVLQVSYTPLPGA
Assay: […]-TROSY NMR titration, single-site fast-exchange fit
Format: binding

pKd: 4.82 to 4.92
Compound: O=P(O)(O)O[C@@H]1[C@H](O)[C@H](O)[C@@H](OP(=O)(O)O)[C@H](OP(=O)(O)O)[C@H]1O [IP3, D-myo-Inositol 1,4,5-tris-phosphate trisodium salt]
